Assay results taken from patent US20090301508A1, “Cosmetic Composition and Preparation Method and Use Thereof” (priority 2006, published 2009).
Counter-ions that a name gives are not always drawn.

Assays:
[1] = tested on: M cells; test: tissue culture experiments, growth of M cells / collagen fiber network; assay type: cell-based; settings: vs control group (P>0.05)
Source text: The difference in comparison with the control group is statistically significant ([…]).

[2] = tested on: TA102; test: AmesTest, strain TA102
Protocol: (§1) 4.3 Sample processing and preparation: 4000 mg sample was weighted and distilled water was added into the sample to 20 ml, then the mixture was blended to obtain a 200 mg/ml of solution. 3, 1, 0.3 and 0.1 mL of this solution were taken, respectively and each was added with sterile distilled water to 10 ml to obtain a solution in the concentration of 60 mg/ml, 20 mg/ml, 6 mg/ml and 2 mg/ml, respectively.
(§2) 4.4 Test doses: 0.2 mg/dish, 0.6 mg/dish, 2 mg/dish, 6 mg/dish and 20 mg/dish
(§3) 4.7 Test strains: TA97, TA98, TA100 and TA102, with qualitied biological characters, provided by Biochemistry Dept., California University, CA, America. The concentration of the bacteria liquid used for the test was 1-2×10^9/ml.
A healthy adult SD rat with a body weight of about 150 g was selected. Polychlorinatedbiphenyl was dissolved into corn oil to obtain a solution of 200 mg/ml. The above solution was injected (i.p.), in a sterile operation, into the rat in a dose of 500 mg/kg. 5 days later, the animal was sacrificed via decapitation. The liver was taken out and weighted, then rinsed several times with 0.15 mol/L of fresh cooled solution of potassium chloride. The amount of the potassium chloride solution was 3 ml/g liver (wet weight). The beaker in which the rinsed liver put was removed into an ice bath, and the liver was cut into pieces with a pair of sterilized scissors. The liver was homogenized with a tissue homogenizer (2000 r/min, 1 min), then the liver homogenate thus prepared was centrifuged in a high speed centrifuge (0-4° C., 9000 g, 10 min). The supernatant, S9 part, was packed into several sterile tubes and conserved in liquid nitrogen. The above steps need to be operated in a sterile and cooled local circumstance. The S9 thus prepared was further identified for its content of protein and bioactivity of indirect mutagen.
Standard plate incorporation on the basis of GB15193-94: Into the top agar (45° C., 2 ml), the bacterial liquid 0.1 ml, Sample 0.1 ml and S9 mixture 0.5 ml for activation were added sequently. The mixture was blended sufficiently and poured rapidly onto the underlayer medium. After the incubation of 48 hr. at 37° C., results were observed. each test was repeated once more.

[3] = tested on: TA100; test: AmesTest, strain TA100
Protocol: as §1, §2, §3
A healthy adult SD rat with a body weight of about 150 g was selected. Polychlorinatedbiphenyl was dissolved into corn oil to obtain a solution of 200 mg/ml. The above solution was injected (i.p.), in a sterile operation, into the rat in a dose of 500 mg/kg. 5 days later, the animal was sacrificed via decapitation. The liver was taken out and weighted, then rinsed several times with 0.15 mol/L of fresh cooled solution of potassium chloride. The amount of the potassium chloride solution was 3 ml/g liver (wet weight). The beaker in which the rinsed liver put was removed into an ice bath, and the liver was cut into pieces with a pair of sterilized scissors. […]

[4] = tested on: philo-pleochromatic akaryocytes in animal marrow; test: Micronucleus Test; assay type: in vivo, mice; settings: positive control 40 mg/kg; for Micronucleated Cells No.: 5000 cells tested
Protocol: 2.2 Preparation of sample: Sample 5000, 2500 or 1250 mg was weighted and grinded. Distilled water was added into the grinded sample to 20 ml, and the mixture was blended sufficiently to form a test sample.
2.3 Animal subject: Kunming species of mice, 25-30 g, provided by experimental animal department, Fudan University. Certificate No.: 02-22-1.
2.5.1 Animals were divided randomly into 5 groups, 10 in each group with half of female and half of male. In the five groups, there were three groups for three doses of test sample, one negative control group, distilled water, and one positive control group, cyclophosphaide.
2.5.2. Animals were weighted and administrated with the test sample or control substances in different concentrations in a volume of 0.4 ml/20 g via an intragastric catheter, and the administration is repeated once more in 30 hr.
2.5.3 Animals were sacrificed via cervical bertebra dislocation 6 hr. after the second intragastric administration. The marrow was taken out of the femoral bone and blended uniformly with calf serum. Then, the film preparation, the fixation, and Giemasa stain were undertaken conventionally.
2.5.4 Test under microscope: Numbers of micronuclei were counted in over one thousand of philo-pleochromatic akaryocytes. Incidence rates of micronuclei were calculated and analyzed statistically.

[5] = tested on: spermatozoa; test: Teratospermia Test; assay type: in vivo, mice; settings: positive control 40 mg/kg
Protocol: 3.2 Preparation of sample: Sample 5000, 2500 or 1250 mg was weighted and grinded. Distilled water was added into the grinded sample to 20 ml, and the mixture was blended sufficiently to obtain a test sample.
3.3 Animal subject: Male mice, depuratory grade, 25-30 g, provided by experimental animal department, Fudan University. Certificate No.: 02-22-1.
3.5.1 Animals were divided randomly into 5 groups, 5 in each group. It the five groups, there were three groups for three doses of test sample, one negative control group, distilled water, and one positive control group, cyclophosphaide.
3.5.2. Animals were weighted and administrated with the test sample or control substances in different concentrations in a volume of 0.4 ml/20 g via an intragastric catheter, once a day for 5 days.
3.5.3 Animals were sacrificed via cervical bertebra dislocation 35 days after the first intragastric administration. The ambo-epididymises were taken off and put into normal saline. After being cut into pieces, they were filtered through a four layer gauze. The filter was smeared, fixed and dyed with 2% eosin.
3.5.4 Test under microscope: Amounts of teratosperm in 1000 spernatozoas were counted per mouse and rates of teratospermia were calculated statistically.

[6] = Salmonella typhimurium, 48 h, 1 μl/dish

SMILES: C[C@@H]1O[C@@H](O[C@@H]2[C@@H](O)[C@H](OCCc3ccc(O)c(O)c3)O[C@H](CO)[C@H]2OC(=O)/C=C/c2ccc(O)c(O)c2)[C@H](O)[C@H](O)[C@H]1O [acteoside, Acteoside]
- promotion on the growth of M cells [1]: obvious promotion

SMILES: COS(C)(=O)=O [Methyl mesylate]
- Re-established colonies [2, 6]: 2520 ± 112 colonies/sish
- Re-established colonies ([2]; first test, TA102 −S9, positive control 1 μl/dish): 2784 ± 289 colonies/sish
- Re-established colonies [3, 6]: 1641 ± 80 colonies/sish
- Re-established colonies ([3]; first test, TA100 −S9, positive control 1 μl/dish): 1463 ± 84 colonies/sish

SMILES: O=P1(N(CCCl)CCCl)NCCCO1 (stereo not shown) [Cyclophosphaide]
- Rate of Micronuclei (‰) ([4]; F): 25.8 ‰
- Micronucleated Cells No. ([4]; F): 129
- Rate of Micronuclei (‰) ([4]; M): 26.4 ‰
- Micronucleated Cells No. ([4]; M): 132
- Aberration rate (‰) [5]: 58.4 ‰
- Type of aberration (n): Banana sharp ([5]; 5000 spernatozoa tested): 32
- Type of aberration (n): Double head ([5]; 5000 spernatozoa tested): 4
- Type of aberration (n): Double tail ([5]; 5000 spernatozoa tested): 6
- Type of aberration (n): Fat head ([5]; 5000 spernatozoa tested): 45
- Type of aberration (n): Fold tail ([5]; 5000 spernatozoa tested): 2
- Type of aberration (n): No crook ([5]; 5000 spernatozoa tested): 28
- Type of aberration (n): amorphism ([5]; 5000 spernatozoa tested): 175

SMILES: O=C1c2cccc(O)c2C(=O)c2c(O)cccc21 [1,8-dioxy anthraquinone]
- Re-established colonies ([2]; first test, TA102 +S9, positive control 50 μl/dish): 885 ± 56 colonies/sish
- Re-established colonies ([2]; second test, TA102 +S9, positive control 50 μl/dish): 975 ± 86 colonies/sish
